# Like-named read-outs stand apart in the source and are kept apart here.
# Experiments:
# [1] = Test of influencing factors of crystalline forms A, B and C (total impurity); type: physicochemical; conditions: methanesulfonate
# From the text: Example 3 Test of Influencing Factors of Crystalline Forms A, B and C
# [2] = Comparison of oral absorption of K-13 (free base) and its methanesulfonate, plasma concentration-time and PK; type: in vivo, BALB/c mice; conditions: 10 mg · kg^−1 PO; for concentration at 0 h / concentration at 8 h / concentration at 24 h: 10 mg · kg^−1, BALB/c mice
# From the text: Comparison of oral absorption of K-13 (free base) and its methanesulfonate (N-(3-fluorophenyl)-6-(6. 7-dimethoxyquinolin-4-oxy)-3.4-dihydroquinoline-1(2H)-carboxamide methanesulfonate)
# [3] = High temperature (60° C.), 0 day
# [4] = High temperature (60° C.), 5 days
# [5] = High temperature (60° C.), 10 days
# [6] = Illumination (5000 + 500 lux), 0 day
# [7] = Illumination (5000 + 500 lux), 5 days
# [8] = Illumination (5000 + 500 lux), 10 days
# [9] = Illumination (5000 + 500 lux), 30 days
# [10] = BALB/c mice, analyte K-13-1, methanesulfonate
structure (smiles),measurement,setting,value
"COc1cc2nccc(Oc3ccc4c(c3)CCCN4C(=O)Nc3cccc(F)c3)c2cc1OC [Crystalline form A, N-(3-fluorophenyl)-6-(6,7-dimethoxyquinolin-4-oxy)-3,4-dihydroquinoline-1(2H)-carboxamide methanesulfonate]",Total impurity %,"[1]; High humidity (RH75%), 0 day",0.91%
same,Total impurity %,"[1]; High humidity (RH75%), 5 days",0.92%
same,Total impurity %,"[1]; High humidity (RH75%), 10 days",0.99%
same,Total impurity %,"[1]; High humidity (RH75%), 30 days",1.25%
same,Total impurity %,[1]; [3],0.91%
same,Total impurity %,[1]; [4],4.50%
same,Total impurity %,[1]; [5],6.96%
same,Total impurity %,[1]; [6],0.91%
same,Total impurity %,[1]; [7],1.89%
same,Total impurity %,[1]; [8],3.70%
same,Total impurity %,[1]; [9],4.21%
"COc1cc2nccc(Oc3ccc4c(c3)CCCN4C(=O)Nc3cccc(F)c3)c2cc1OC [K-13-MS-1, N-(3-fluorophenyl)-6-(6,7-dimethoxyquinolin-4-oxy)-3,4-dihydroquinoline-1(2H)-carboxamide methanesulfonate]",increase of in vivo exposure AUClast versus free base,[2]; BALB/c mice,2.46 times
same,increase of in vivo exposure Cmax versus free base,[2]; BALB/c mice,3.14 times
same,"plasma Concentration of K-13-1, PO-1","[2]; BALB/c mice, 0.083 h, animal PO-1, methanesulfonate",431 ng/mL
same,"plasma Concentration of K-13-1, PO-2","[2]; BALB/c mice, 0.083 h, animal PO-2, methanesulfonate",414 ng/mL
same,"plasma Concentration of K-13-1, Mean","[2]; BALB/c mice, 0.083 h, mean, methanesulfonate",423 ng/mL
same,"plasma Concentration of K-13-1, PO-1","[2]; BALB/c mice, 0.25 h, animal PO-1, methanesulfonate",2175 ng/mL
same,"plasma Concentration of K-13-1, PO-2","[2]; BALB/c mice, 0.25 h, animal PO-2, methanesulfonate",2059 ng/mL
same,"plasma Concentration of K-13-1, Mean","[2]; BALB/c mice, 0.25 h, mean, methanesulfonate",2117 ng/mL
same,"plasma Concentration of K-13-1, PO-1","[2]; BALB/c mice, 0.5 h, animal PO-1, methanesulfonate",1868 ng/mL
same,"plasma Concentration of K-13-1, PO-2","[2]; BALB/c mice, 0.5 h, animal PO-2, methanesulfonate",1775 ng/mL
same,"plasma Concentration of K-13-1, Mean","[2]; BALB/c mice, 0.5 h, mean, methanesulfonate",1822 ng/mL
same,"plasma Concentration of K-13-1, PO-1","[2]; BALB/c mice, 1 h, animal PO-1, methanesulfonate",1824 ng/mL
same,"plasma Concentration of K-13-1, PO-2","[2]; BALB/c mice, 1 h, animal PO-2, methanesulfonate",1317 ng/mL
same,"plasma Concentration of K-13-1, Mean","[2]; BALB/c mice, 1 h, mean, methanesulfonate",1571 ng/mL
same,"plasma Concentration of K-13-1, PO-1","[2]; BALB/c mice, 2 h, animal PO-1, methanesulfonate",922 ng/mL
same,"plasma Concentration of K-13-1, PO-2","[2]; BALB/c mice, 2 h, animal PO-2, methanesulfonate",1319 ng/mL
same,"plasma Concentration of K-13-1, Mean","[2]; BALB/c mice, 2 h, mean, methanesulfonate",1121 ng/mL
same,"plasma Concentration of K-13-1, PO-1","[2]; BALB/c mice, 4 h, animal PO-1, methanesulfonate",884 ng/mL
same,"plasma Concentration of K-13-1, PO-2","[2]; BALB/c mice, 4 h, animal PO-2, methanesulfonate",981 ng/mL
same,"plasma Concentration of K-13-1, Mean","[2]; BALB/c mice, 4 h, mean, methanesulfonate",932 ng/mL
same,"plasma Concentration of K-13-1, PO-1","[2]; BALB/c mice, 8 h, animal PO-1, methanesulfonate",130 ng/mL
same,"plasma Concentration of K-13-1, PO-2","[2]; BALB/c mice, 8 h, animal PO-2, methanesulfonate",89.0 ng/mL
same,"plasma Concentration of K-13-1, Mean","[2]; BALB/c mice, 8 h, mean, methanesulfonate",109 ng/mL
same,"plasma Concentration of K-13-1, PO-2","[2]; BALB/c mice, 24 h, animal PO-2, methanesulfonate",BLOQ
same,"plasma Concentration of K-13-1, Mean","[2]; BALB/c mice, 24 h, mean, methanesulfonate",BLOQ
same,AUC0-inf,[2]; [10],7350 ng·h/mL
same,AUC0-t,[2]; [10],7051 ng·h/mL
same,Cmax,[2]; [10],2117 ng/mL
same,F (oral bioavailability),[2]; [10],50%
same,Kel,[2]; [10],0.364 h⁻¹
same,T1/2,[2]; [10],1.9 h
same,Tmax,[2]; [10],0.25 h
same,concentration at 0 h,"[2]; BALB/c, mouse, plasma, po, animal PO-1, read-out: plasma Concentration of K-13-1, PO-1",0 ng/mL
same,concentration at 0 h,"[2]; BALB/c, mouse, plasma, po, animal PO-2, read-out: plasma Concentration of K-13-1, PO-2",0 ng/mL
same,concentration at 0 h,"[2]; BALB/c, mouse, plasma, po, mean, read-out: plasma Concentration of K-13-1, Mean",0 ng/mL
"COc1cc2nccc(Oc3ccc4c(c3)CCCN4C(=O)Nc3cccc(F)c3)c2cc1OC [Crystalline form B, N-(3-fluorophenyl)-6-(6,7-dimethoxyquinolin-4-oxy)-3,4-dihydroquinoline-1(2H)-carboxamide methanesulfonate]",Total impurity %,"[1]; High humidity (RH75%), 0 day",0.86%
same,Total impurity %,"[1]; High humidity (RH75%), 5 days",1.03%
same,Total impurity %,"[1]; High humidity (RH75%), 10 days",1.09%
same,Total impurity %,"[1]; High humidity (RH75%), 30 days",1.12%
same,Total impurity %,[1]; [3],0.86%
same,Total impurity %,[1]; [4],1.00%
same,Total impurity %,[1]; [5],0.98%
same,Total impurity %,[1]; [6],0.86%
same,Total impurity %,[1]; [7],0.94%
same,Total impurity %,[1]; [8],1.12%
same,Total impurity %,[1]; [9],1.33%
"COc1cc2nccc(Oc3ccc4c(c3)CCCN4C(=O)Nc3cccc(F)c3)c2cc1OC [K-13-1, N-(3-fluorophenyl)-6-(6,7-dimethoxyquinolin-4-oxy)-3,4-dihydroquinoline-1(2H)-carboxamide]","plasma Concentration of K-13-1, PO-1","[2]; BALB/c mice, 0.083 h, animal PO-1",29.6 ng/mL
same,"plasma Concentration of K-13-1, PO-2","[2]; BALB/c mice, 0.083 h, animal PO-2",46.6 ng/mL
same,"plasma Concentration of K-13-1, Mean","[2]; BALB/c mice, 0.083 h, mean",38.1 ng/mL
same,"plasma Concentration of K-13-1, PO-1","[2]; BALB/c mice, 0.25 h, animal PO-1",186 ng/mL
same,"plasma Concentration of K-13-1, PO-2","[2]; BALB/c mice, 0.25 h, animal PO-2",215 ng/mL
same,"plasma Concentration of K-13-1, Mean","[2]; BALB/c mice, 0.25 h, mean",201 ng/mL
same,"plasma Concentration of K-13-1, PO-1","[2]; BALB/c mice, 0.5 h, animal PO-1",480 ng/mL
same,"plasma Concentration of K-13-1, PO-2","[2]; BALB/c mice, 0.5 h, animal PO-2",865 ng/mL
same,"plasma Concentration of K-13-1, Mean","[2]; BALB/c mice, 0.5 h, mean",673 ng/mL
same,"plasma Concentration of K-13-1, PO-1","[2]; BALB/c mice, 1 h, animal PO-1",551 ng/mL
same,"plasma Concentration of K-13-1, PO-2","[2]; BALB/c mice, 1 h, animal PO-2",420 ng/mL
same,"plasma Concentration of K-13-1, Mean","[2]; BALB/c mice, 1 h, mean",485 ng/mL
same,"plasma Concentration of K-13-1, PO-1","[2]; BALB/c mice, 2 h, animal PO-1",136 ng/mL
same,"plasma Concentration of K-13-1, PO-2","[2]; BALB/c mice, 2 h, animal PO-2",485 ng/mL
same,"plasma Concentration of K-13-1, Mean","[2]; BALB/c mice, 2 h, mean",311 ng/mL
same,"plasma Concentration of K-13-1, PO-1","[2]; BALB/c mice, 4 h, animal PO-1",220 ng/mL
same,"plasma Concentration of K-13-1, PO-2","[2]; BALB/c mice, 4 h, animal PO-2",395 ng/mL
same,"plasma Concentration of K-13-1, Mean","[2]; BALB/c mice, 4 h, mean",308 ng/mL
same,"plasma Concentration of K-13-1, PO-1","[2]; BALB/c mice, 24 h, animal PO-1",BLOQ
same,AUC0-inf,"[2]; BALB/c mice, analyte K-13-1",2894 ng·h/mL
same,AUC0-t,"[2]; BALB/c mice, analyte K-13-1",2870 ng·h/mL
same,Cmax,"[2]; BALB/c mice, analyte K-13-1",673 ng/mL
same,Kel,"[2]; BALB/c mice, analyte K-13-1",0.200 h⁻¹
same,F (oral bioavailability),"[2]; BALB/c mice, analyte K-13-1, listed as free base",20%
same,concentration at 8 h,"[2]; BALB/c, mouse, plasma, po, 8 h, animal PO-1, read-out: plasma Concentration of K-13-1, PO-1",97.2 ng/mL
same,concentration at 8 h,"[2]; BALB/c, mouse, plasma, po, 8 h, animal PO-2, read-out: plasma Concentration of K-13-1, PO-2",58.8 ng/mL
same,concentration at 8 h,"[2]; BALB/c, mouse, plasma, po, 8 h, mean, read-out: plasma Concentration of K-13-1, Mean",78 ng/mL
same,concentration at 24 h,"[2]; BALB/c, mouse, plasma, po, 24 h, animal PO-2, read-out: plasma Concentration of K-13-1, PO-2",4.65 ng/mL
same,concentration at 24 h,"[2]; BALB/c, mouse, plasma, po, 24 h, mean, read-out: plasma Concentration of K-13-1, Mean",4.65 ng/mL
same,half-life,"[2]; BALB/c, mouse, plasma, po, 10 mg/kg, BALB/c mice, analyte K-13-1",3.5 h
same,Tmax,"[2]; BALB/c, mouse, plasma, po, 10 mg/kg, BALB/c mice, analyte K-13-1, read-out: Tmax",0.5 h

# Source: patent US20250361209A1, “CRYSTAL FORMS OF N-(3-FLUOROPHENYL)-6-(6,7-DIMETHOXYQUINOLIN-4-OXY)-3,4-DIHYDROQUINOLINE-1(2H)-CARBOXAMIDE METHANESULFONATE AND PREPARATION METHOD THEREOF” (Shanghai Yi Feng Biotechnology Co., Ltd., priority 2023, published 2025)
